Reference: PMC10455244, “Alpha-Mangostin: A Potent Inhibitor of TRPV3 and Pro-Inflammatory Cytokine Secretion in Keratinocytes” (International Journal of Molecular Sciences, 2023)

Biological target: T1, TRPV3 (Homo sapiens, UniProt Q8NET8)
T1 sequence (Q8NET8 1-790): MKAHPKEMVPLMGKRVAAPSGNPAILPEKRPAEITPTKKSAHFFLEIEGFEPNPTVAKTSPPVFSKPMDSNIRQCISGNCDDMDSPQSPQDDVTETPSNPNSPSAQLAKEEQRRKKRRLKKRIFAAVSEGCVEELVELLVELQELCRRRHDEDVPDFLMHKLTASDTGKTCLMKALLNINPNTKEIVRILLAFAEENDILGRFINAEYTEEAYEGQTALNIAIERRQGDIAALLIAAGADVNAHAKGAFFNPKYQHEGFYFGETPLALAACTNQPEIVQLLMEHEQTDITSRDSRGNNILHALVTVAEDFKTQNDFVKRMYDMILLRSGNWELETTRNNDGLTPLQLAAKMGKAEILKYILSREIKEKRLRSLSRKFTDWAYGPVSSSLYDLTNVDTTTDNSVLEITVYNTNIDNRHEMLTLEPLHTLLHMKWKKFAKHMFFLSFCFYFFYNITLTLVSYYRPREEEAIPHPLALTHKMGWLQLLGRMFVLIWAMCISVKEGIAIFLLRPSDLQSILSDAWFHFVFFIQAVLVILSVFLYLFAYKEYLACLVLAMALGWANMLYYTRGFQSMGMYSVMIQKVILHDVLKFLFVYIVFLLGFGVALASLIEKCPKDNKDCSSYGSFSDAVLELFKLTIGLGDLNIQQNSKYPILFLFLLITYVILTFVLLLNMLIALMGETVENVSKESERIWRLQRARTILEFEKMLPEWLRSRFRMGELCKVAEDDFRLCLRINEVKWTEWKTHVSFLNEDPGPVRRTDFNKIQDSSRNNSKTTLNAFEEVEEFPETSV
Assay: Fura-2 calcium imaging, carvacrol-induced Ca2+ increase in hTRPV3-overexpressing HEK 293T cells
Type: cell-based
Set-up: expressed in transfected cells
Settings: 300 µM carvacrol; for ∆(F340/F380): control 0.424 ± 0.032
Method: Since the TRPV3-mediated calcium influx is reported to contribute to proper skin function, we investigated whether alpha-mangostin inhibits the intracellular calcium increase induced by carvacrol in hTRPV3-overexpressing HEK 293T cells and keratinocytes. […] In hTRPV3-overexpressing HEK 293T cells, ∆(F340/F380) decreased by approximately 25% and 70% upon exposure to 0.3 µM and 3 µM alpha-mangostin, respectively (Figure 3A, 0.424 ± 0.032 vs. 0.316 ± 0.030 and 0.144 ± 0.006, respectively).
Figure 3 Alpha-mangostin (α-MG) inhibited TRPV3-mediated intracellular calcium increase. Cells were perfused with solutions containing 0.3 µM, 3 µM alpha-mangostin or 10 µM 74a before the addition of 300 µM carvacrol (red, green, and blue lines, respectively). Cells only perfused with normal Tyrode (NT) solution in the presence (black line) or absence (purple line) of 300 µM carvacrol were employed as the control. (A) Alpha-mangostin inhibited TRPV3-mediated intracellular calcium increase in response to carvacrol in TRPV3-overexpressing HEK 293T cells. […] The bar graph on the bottom summarizes the change in the intracellular calcium rise inhibited by alpha-mangostin. (B) Alpha-mangostin inhibited TRPV3-mediated intracellular calcium increase in response to carvacrol in normal human epidermal keratinocytes (NHEK). […] The bar graph on the bottom summarizes the change in the intracellular calcium rise inhibited by alpha-mangostin. Data are presented as means ± SEM. ** p < 0.01, *** p < 0.001, **** p < 0.0001.
Fura-2 AM (Thermo Fisher Scientific) was utilized as a fluorescent indicator to measure calcium signal, as described previously. Fura-2 acetoxymethyl ester (Fura-2 AM) is a widely used fluorescent calcium indicator. After crossing the cell membrane and entering the cytosol, Fura-2 AM is cleaved into its activated form, Fura-2 [49]. After binding to the cytosolic free Ca^2+, the peak excitation of Fura-2 shifts from 380 nm (Ca^2+-free state) to 340 nm (Ca^2+-bound state), while the peak emission remains unchanged at around 510 nm. To measure the cytosolic Ca^2+ level, a sequential excitation of Fura-2 is performed at 340 nm and 380 nm; then, the emission signals resulting from each excitation wavelength are measured and the ratio of these signals is calculated. […] Samples were excited using a wavelength of 380 nm for 20 ms, followed by 340 nm for 100 ms, and fluorescence at 510 nm was recorded. Recorded data were then analyzed using NIS-Element AR Version 5.00.00 (Nikon Instruments, Melville, NY, USA).
The change in the fluorescence ratio when the cells were excited at 340 nm and 380 nm (ΔF340/380) during the measurements was calculated by subtracting the ratio obtained at the beginning of the experiment from each subsequent ratio obtained at different time points. […]

## COc1c(O)cc2oc3cc(O)c(CC=C(C)C)c(O)c3c(=O)c2c1CC=C(C)C [Alpha-mangostin]
0.3 µM
  Decrease of ∆(F340/F380): approximately 25%
  ∆(F340/F380): 0.316 ± 0.030
3 µM
  Decrease of ∆(F340/F380): ~70%
  ∆(F340/F380): 0.144 ± 0.006
